Test results as given in US20100324091A1, “Pyrazolone Derivative” (Kowa Company, Ltd., priority 2007, published 2010).

Key:
C57BL/6 mice = assay: Bleomycin-induced lung fibrosis model; assay type: in vivo; conditions: Mus musculus, po, 504 h, 0.3 mg/kg orally once a day, three weeks after intratracheal bleomycin 6 mg/kg, vs solvent-administered group, read-out: Inhibitory ratio against the increment in the lung hydroxyproline amount
From the text: It is reported that administering bleomycin into the trachea induces fibrosis of the lung. According to the pathological observation, it is similar to clinical idiopathic pulmonary fibrosis in terms of the thickened fibrosis of the alveolar wall, an increase in inflammatory cells, an increment in the amount of hydroxyproline, etc., and is often used as a lung fibrosis experimental model (Biochem. Biophys. Res. Comm., 288, 747 (2001)). Bleomycin hydrochloride (Bleo: Nippon Kayaku Co., Ltd.) dissolved in physiological saline was injected with 500 μl of compressed air into the bronchi of C57BL/6 mice (6 week old, female) at 6 mg/kg and 25 μl/body. Three weeks after the intratracheal administration, the amount of hydroxyproline in the lung was measured. The materials to be tested, at 0.3 mg/kg per dose, were suspended in 0.5% sodium carboxymethyl cellulose, and administered orally once a day. The effect of the present invention is represented by a inhibitory ratio against the increment in the amount of lung hydroxyproline of the solvent-administered group, and is shown in Table 3 below.

[1] = tested on: PAI-1 production in human bronchial epithelial cells (BEAS-2B); assay: PAI-1 production inhibitory activity using bronchial epithelial cells; assay type: cell-based; conditions: BEAS-2B cells, TGF-β stimulation, 24 hrs, PAI-1 in supernatant by ELISA
Protocol: The effect of a compound against PAI-1 production activity was investigated using bronchial epithelial cells which reflect the PAI-1 concentration in the lung tissue involved in fibrosis (lung).
The effect against the amount of PAI-1 production was investigated using human bronchial epithelial cells (BEAS-2B). 0.1 ml of the BEAS-2B cells prepared to 2×10^5 cells/ml were added to each of the 96 wells of a collagen I coated plate, and precultured for 24 hrs. Then 0.1 ml of a medium containing […] of TGF-β was added, and after 24 hrs of incubation, the PAI-1 amount in the supernatant of the medium was measured by an ELISA kit. The materials to be tested were, after dissolved in dimethyl sulfoxide (the final concentration: 0.1% or lower), prepared to 0.2, 1, 5, and 25 μM with a phosphate buffer solution, and added to the preculture.

Row | SMILES | inhibition in vivo at 0.3 mg/kg (C57BL/6 mice) | IC50 [1]
1 | COc1ccc(C2=NNC(=O)C2)cc1OC1Cc2ccccc2C1 [Compound No. 1, 3-(3-(2-indanyloxy)-4-methoxyphenyl)-5-pyrazolone] | 77% | 
2 | COc1ccc(C2=NN(C)C(=O)C2)cc1OC1Cc2ccccc2C1 [Compound No. 2, 3-(3-(2-indanyloxy)-4-methoxyphenyl)-1-methyl-5-pyrazolone] | 75% | 1420 nM
3 | COc1ccc(C2=NNC(=O)C2)cc1OC1CCCC1 [Compound No. 3, 3-(3-(cyclopentyloxy)-4-methoxyphenyl)-5-pyrazolone] | 73% | 7590 nM
4 | COc1ccc(C2=NN(C)C(=O)C2)cc1OC1CCCC1 [Compound No. 4, 3-(3-(cyclopentyloxy)-4-methoxyphenyl)-1-methyl-5-pyrazolone] | 73% | 
5 | COc1ccc(C2=NN(c3ccccc3)C(=O)C2)cc1OC1Cc2ccccc2C1 [Compound No. 5, 3-(3-(2-indanyloxy)-4-methoxyphenyl)-1-phenyl-5-pyrazolone] | 75% | 
6 | COc1ccc(C2=NN(c3ccccc3)C(=O)C2)cc1OC1CCCC1 [Compound No. 6, 3-(3-(cyclopentyloxy)-4-methoxyphenyl)-1-phenyl-5-pyrazolone] | 52% | 2560 nM
7 | COc1ccc(C2=NN(c3ccc(C(=O)O)cc3)C(=O)C2)cc1OC1CCCC1 [Compound No. 7, 3-(3-(cyclopentyloxy)-4-methoxyphenyl)-1-(4-hydroxycarbonylphenyl)-5-pyrazolone] | 57% | 
8 | O=C1CC(c2ccc(OC(F)F)c(OC3CCCC3)c2)=NN1 [Compound No. 8, 3-(3-(cyclopentyloxy)-4-(difluoromethoxy)phenyl)-5-pyrazolone] | 61% | 
9 | COc1ccc(C2=NNC(=O)C2)cc1OCC1CC1 [Compound No. 9, 3-(3-(cyclopropylmethoxy)-4-methoxyphenyl)-5-pyrazolone] | 60% | 
